Data taken from article PMC10451629, “Evaluation of the Effects of Heteroaryl Ethylene Molecules in Combination with Antibiotics: A Preliminary Study on Control Strains” (Antibiotics, 2023).
≈ marks a conversion by molar mass, not a printed value. Where “and” joins values, the source holds several entries; their conditions need not be identical. Identical values can stand only once. Like-named read-outs stand apart in the source and are kept apart here.

Experiments:
E. faecalis ATCC 29212 = assay: Broth microdilution MIC; format: cell-based, Enterococcus faecalis; conditions: for MIC: substance alone
[1] = system: K. pneumoniae ATCC 700603; assay: Broth microdilution MIC; format: cell-based, Klebsiella pneumoniae; conditions: for MIC: substance alone
E. coli ATCC 25922 = assay: Broth microdilution MIC; format: cell-based; conditions: Escherichia coli, ATCC25922, substance alone, read-out: MIC
S. aureus ATCC 12598 = assay: Broth microdilution MIC; format: cell-based, Staphylococcus aureus; conditions: for MIC: Staphylococcus aureus, ATCC12598, S. aureus ATCC 12598, substance alone, read-out: MIC
P. aeruginosa ATCC 27853 = assay: Broth microdilution MIC; format: cell-based, Pseudomonas aeruginosa; conditions: substance alone
[2] = system: S. aureus ATCC BAA-1556 USA300; assay: Broth microdilution MIC; format: cell-based, Staphylococcus aureus; conditions: Staphylococcus aureus, S. aureus ATCC BAA-1556 USA300; substance alone
S. aureus ATCC 29213 = assay: Broth microdilution MIC; format: cell-based; conditions: Staphylococcus aureus, ATCC29213, S. aureus ATCC 29213; substance alone; read-out: MIC
all tested strains = assay: Broth microdilution MIC, summary over all tested strains; format: cell-based; conditions: for MIC reduction in combination with PB4: all tested bacterial strains, antibiotic + PB4
A. baumannii ATCC 17978 = assay: Broth microdilution MIC; format: cell-based; conditions: Acinetobacter baumannii, ATCC17978, substance alone
S. enterica ATCC 14028 = assay: Broth microdilution MIC; format: cell-based; conditions: Salmonella enterica, ATCC14028, substance alone
[3] = system: CaCo2 colon-rectal cancer cell line; set-up: method as in in-house dataset; Log(IC50) 48h: unit not given here; conditions: in-house dataset previously tested by the authors' groups, ref in-house dataset, cited from earlier work
[4] = system: CaCo-2 (ATCC HTB-37) colon–rectal cancer cell line; assay: MTT cytotoxicity assay on CaCo-2 cells; format: cell-based, human; conditions: for IC50: Homo sapiens, CaCo-2 cell line, MTT
Description: To fully assess the biological activity of the new molecules, they were tested at different concentrations on the CaCo-2 (ATCC HTB-37) colon–rectal cancer cell line. These human cancer cells were exposed to compound solutions ranging in concentration from 100 µM to 0.01 µM. As a reference compound for these assays, we used 5-Fluorouracil (5-FU), a pyrimidine analog from the antimetabolite family.
The MTT assay was also performed for the selected antibiotics to evaluate the effect of their combined treatment with PB4.
To evaluate the effect of the heteroaryl ethylene compounds and the antibiotics, an MTT ([3-(4,5-dimethylthiazol-2-yl)-2,5-diphenyltetrazolium bromide]) assay was performed as previously described. […] Both concentrations were also tested in combination with PB4 0.2 µM. All antibiotics were provided by Thermo Scientific^TM Oxoid^TM, Basingstoke, UK. Twenty-four hours after plating, the cells were treated with 20 μL of each solution. Untreated cells were used as controls. […] The IC50 values were calculated by nonlinear regression analysis using GraphPad Prism 6.0 software.

Gram-positive strains = assay: Broth microdilution MIC, summary over Gram-positive strains; format: cell-based
S. aureus ATCC29213 = conditions: QSAR dataset; cited from earlier work
[5] = Enterococcus faecalis, ATCC29212, E. faecalis ATCC 29212, read-out: MIC
[6] = Klebsiella pneumoniae, ATCC700603, K. pneumoniae ATCC 700603, read-out: MIC
[7] = Caco-2, 24 h, 24 h of treatment, read-out: IC50 at 24 h
[8] = Caco-2, 48 h, 48 h of treatment, read-out: IC50 at 48 h
[9] = Pseudomonas aeruginosa, ATCC27853, P. aeruginosa ATCC 27853, read-out: MIC

Row | Compound | MIC (E. coli ATCC 25922) | MIC (S. aureus ATCC 12598) | MIC [2] | MIC (S. aureus ATCC 29213) | MIC reduction in combination with PB4 (all tested strains) | MIC (A. baumannii ATCC 17978) | MIC (S. enterica ATCC 14028) | MIC (E. faecalis ATCC 29212; [5]) | MIC [1, 6] | IC50 [4, 7] [nM] | IC50 [4, 8] [nM] | MIC (P. aeruginosa ATCC 27853; [9]) | other results
1 | CC1(C)S[C@@H]2[C@H](NC(=O)[C@H](N)c3ccccc3)C(=O)N2[C@H]1C(=O)O [Ampicillin, ampicillin, reference compound] | 8 µg/mL (≈ 22.9 µM) | 0.125 µg/mL (≈ 0.358 µM) | 8 µg/mL (≈ 22.9 µM) | 2 µg/mL (≈ 5.72 µM) | no significant MIC reductions | 32 µg/mL (≈ 91.6 µM) | 2 µg/mL (≈ 5.72 µM) | – | – | – | – | – | MIC of antibiotic in combination with PB4 (E. faecalis ATCC 29212; E. faecalis ATCC 29212, PB4 at fixed 0.125 μg/mL (0.24 μM), a quarter of an MIC value): 1 µg/mL; MIC (E. faecalis ATCC 29212; E. faecalis ATCC 29212): 4 mg/L (≈ 11.4 µM); MIC (E. faecalis ATCC 29212; E. faecalis ATCC 29212, listed as AMP): 0.25 mg/L (≈ 0.715 µM); MIC of antibiotic in combination with PB4 ([1]; K. pneumoniae ATCC 700603, sub-MIC PB4): 2 µg/mL; MIC ([1]; K. pneumoniae ATCC 700603): 8 mg/L (≈ 22.9 µM); MIC ([1]; K. pneumoniae ATCC 700603, listed as AMP): >128 mg/L; MIC (P. aeruginosa ATCC 27853; P. aeruginosa ATCC 27853): 2 mg/L (≈ 5.72 µM); MIC (P. aeruginosa ATCC 27853; P. aeruginosa ATCC 27853, listed as AMP): >128 mg/L
2 | COc1ccc(/C=C/c2cccc(/C=C/c3ccc(OC)cc3)[n+]2C)cc1 [BCM6] | 128 µg/mL and 264 µM | 4 µg/mL and 8.23 µM | 8 µg/mL and 16.4 µM | 4 µg/mL and 8.2 µM | – | 64 µg/mL and 132 µM | > 128 µg/mL and > 264 µM | 32 µg/mL and 65.9 µM | > 128 µg/mL and > 264 µM | 160 | 180 | > 128 µg/mL and > 264 µM | IC50 ([3]; 48h): 12300 nM; Log(IC50) 48h [3]: 1.09; MIC (Gram-positive strains): 4 to 8 µg/mL
3 | CC[C@H]1OC(=O)[C@H](C)[C@@H](O[C@H]2C[C@@](C)(OC)[C@@H](O)[C@H](C)O2)[C@H](C)[C@@H](O[C@@H]2O[C@H](C)C[C@H](N(C)C)[C@H]2O)[C@](C)(O)C[C@@H](C)C(=O)[C@H](C)[C@@H](O)[C@]1(C)O [Erythromycin, erythromycin] | – | 0.5 µg/mL (≈ 0.681 µM) | 32 µg/mL (≈ 43.6 µM) | 0.5 µg/mL (≈ 0.681 µM) | no significant MIC reductions | – | – | 2 mg/L (≈ 2.73 µM) | – | – | – | – | Percentage of cell growth, antibiotic ([4]; CaCo-2, antibiotic alone at MIC for E. faecalis ATCC 29212, 24 h): 148.2%; Percentage of cell growth, antibiotic ([4]; CaCo-2, antibiotic alone at MIC for E. faecalis ATCC 29212, 48 h): 269.0%; Percentage of cell growth, antibiotic ([4]; CaCo-2, antibiotic alone at sub-MIC (half-MIC), 24 h): 159.5%; Percentage of cell growth, antibiotic ([4]; CaCo-2, antibiotic alone at sub-MIC (half-MIC), 48 h): 280.6%; Percentage of cell growth, antibiotic + PB4 0.2 µM ([4]; CaCo-2, antibiotic at MIC + PB4 0.2 µM, 24 h): 133.6%; Percentage of cell growth, antibiotic + PB4 0.2 µM ([4]; CaCo-2, antibiotic at MIC + PB4 0.2 µM, 48 h): 117.5%; Percentage of cell growth, antibiotic + PB4 0.2 µM ([4]; CaCo-2, antibiotic at sub-MIC + PB4 0.2 µM, 24 h): 124.9%; Percentage of cell growth, antibiotic + PB4 0.2 µM ([4]; CaCo-2, antibiotic at sub-MIC + PB4 0.2 µM, 48 h): 155.8%
4 | C[n+]1c(/C=C/c2ccc(N(c3ccccc3)c3ccccc3)cc2)cccc1/C=C/c1ccc(N(c2ccccc2)c2ccccc2)cc1 [GC-VI-10] | > 128 µg/mL and > 169 µM | 64 µg/mL and 84.4 µM | 128 µg/mL and 169 µM | 128 µg/mL and 169 µM | – | > 128 µg/mL and > 169 µM | > 128 µg/mL and > 169 µM | 4 µg/mL and 5.2 µM | > 128 µg/mL and > 169 µM | 1350 | 990 | > 128 µg/mL and > 169 µM | MIC levels over all tested strains (all tested strains; summary in text over all tested strains): high MIC levels
5 | CN(C)c1ccc(/C=C/C=C/c2ccc3ccccc3[n+]2C)cc1 [GC-VII-50] | 64 µg/mL and 149 µM | 0.25 µg/mL and 0.5 µM | 2 µg/mL and 4.6 µM | 0.5 µg/mL and 1.1 µM | – | 16 µg/mL and 37.2 µM | > 128 µg/mL and > 297 µM | 8 µg/mL and 18.5 µM | > 128 µg/mL and > 297 µM | 170 | 70 | > 128 µg/mL and > 297 µM | MIC (Gram-positive strains): 0.25 to 8 µg/mL
6 | C[C@@H](O)[C@H]1C(=O)N2C(C(=O)O)=C(SCCN=CN)C[C@H]12 [IMI, imipenem, reference compound] | 0.06 µg/mL (≈ 0.2 µM) | – | – | – | no significant MIC reductions | 0.06 µg/mL (≈ 0.2 µM) | 0.06 µg/mL (≈ 0.2 µM) | – | 0.03 mg/L (≈ 0.1 µM) | – | – | 0.25 mg/L (≈ 0.835 µM) | –
7 | CC(=O)NC[C@H]1CN(c2ccc(N3CCOCC3)c(F)c2)C(=O)O1 [Linezolid, linezolid, reference compound] | – | 4 µg/mL (≈ 11.9 µM) | 2 µg/mL (≈ 5.93 µM) | 4 µg/mL (≈ 11.9 µM) | no significant MIC reductions | – | – | 4 mg/L (≈ 11.9 µM) | – | – | – | – | –
8 | CN(C)c1ccc(/C=C/c2cccc(/C=C/c3ccc(N(C)C)cc3)[n+]2C)cc1 [PB4] | 2 µg/mL and 3.91 µM | 0.25 µg/mL and 0.49 µM | ≤ 0.125 µg/mL and ≤ 0.24 µM | 0.125 µg/mL and 0.24 µM | – | ≤ 0.125 µg/mL and ≤ 0.24 µM | 64 µg/mL and 125 µM | 0.5 µg/mL and 0.98 µM | 64 µg/mL and 125 µM | 310 | 300 | > 128 µg/mL and > 250 µM | Reduction of PB4 MIC in combination with GC-VI-70 (E. faecalis ATCC 29212; E. faecalis ATCC 29212): 2 logs; MIC of PB4 + GC-VI-70 combination (E. faecalis ATCC 29212; E. faecalis ATCC 29212, PB4 fixed at its MIC for the strain, GC-VI-70 128 to 0.125 mg/L): 0.06 µg/mL; MIC (S. aureus ATCC29213): 0.25 µg/mL; Reduction of PB4 MIC in combination with GC-VI-70 (S. aureus ATCC 12598; S. aureus ATCC 12598): 2 logs; MIC of PB4 + GC-VI-70 combination (S. aureus ATCC 12598; S. aureus ATCC 12598, PB4 fixed at its MIC for the strain, GC-VI-70 128 to 0.125 mg/L): 0.06 µg/mL; Percentage of cell growth, PB4 0.2 µM ([4]; CaCo-2, PB4 alone 0.2 µM, 48 h): 72.7%
